Results published in US20190084900A1, “ISOTOPICALLY MODIFIED COMPOSITION AND THERAPEUTIC USES THEREOF” (RETROTOPE, INC., priority 2016, published 2019).
“Also recorded” adds a separate entry of the source. Where no end group is shown, it is not given here.

Assays:
[1] = In vitro peptide aging: hydrolysis of the succinimide intermediate to isoaspartyl vs normal aspartyl peptide (HPLC); format: physicochemical; settings: for average relative amount of isoaspartyl-containing peptide (isoAsp/(isoAsp+Asp)): samples aged at 37° C. for at least 24 h, pH 7.4
Protocol: Both isoaspartyl- and normal aspartyl-containing peptides arose from spontaneous deamidation of the deuterated asparaginyl residue upon incubation at pH 7.4 and 37° C.

[2] = In vitro peptide aging: racemization, D-aspartate quantified in acid hydrolysates and rate constants fitted; format: physicochemical; settings: for Asn/Asp/isoAsp residues racemized to the D-configuration by 4 days: 4 days of aging; for racemization rate constant of the succinimide: least squares fit of modeled D-Asx accumulation to measured values; for slope of racemization line (D-aspartate fraction versus time): deamidated peptides
Protocol: First, a 10 μL aliquot (3.27 nmol) was removed from the aged sample and dried in a small glass test tube. These tubes were placed in a hydrolysis vial and 300 μL of 6 M hydrochloric acid was added to the vial but not directly into the sample tubes. The vial was capped with a Teflon stopcock, and then was flushed with nitrogen and sealed under vacuum using a PicoTag Work Station (Waters). This method allows only acid vapor to contact the peptide, minimizing contamination with exogenous aspartic acid. Hydrolysis proceeded at 110° C. for the relatively short time of 3 h, which is long enough to release most of the asparaginyl/aspartyl residues from the peptide, while minimizing acid catalyzed racemization (Brunauer and Clarke 1986). D-Aspartate and L-aspartate in the hydrolysates were then modified with o-phthalaldehyde and N-acetyl-L-cysteine to make fluorescent diasteriomers and quantitated using reverse phase HPLC with fluorometric analysis (Aswad 1984), as modified by Warmack et al. 2016.
To get an estimate of the racemization rate constants, the rate constants determined by Geiger and Clarke (1987) for a peptide of the same sequence was used but only with protonated asparagine using the following equations, where each k value has the units of min^−1: […]
At time zero, the l-asparaginyl-containing peptide is set to a quantity of 1.0, and all of the degradation products are considered to have a quantity of 0. The equations are then solved to give the quantities of the peptides present after 1 min, and these quantities are then used to solve the peptides for the next minute. Using Microsoft Excel, these calculations were repeated until the amount of each peptide present after 20.6 days was determined.
To investigate the effect of asparagine residue deuteration on racemization, the peptides were aged at 37° C. and pH 7.4 as described above, and the quantity of D-aspartate determined following acid hydrolysis. While breaking the peptide bonds to release free amino acids, acid hydrolysis also converts asparaginyl, succinimidyl, and isoaspartyl residues into free aspartic acid. […] The accumulation of D-Asx residues (D-Asp, D-isoAsp, and D-succinimide) was modeled using the rate constants as described in the “Materials and methods” section to fit the data points using the values obtained by Geiger and Clarke (1987) and maximizing the fit by varying the rate constant for succinimide racemization.
VYPNGA containing either protiated or deuterated asparagine was incubated for various times at 37° C. and pH 7.4 and then acid hydrolyzed. The amount of d-aspartate and l-aspartate in the hydrolysates was quantified following derivatization with ortho-phthalaldehyde and N-acetyl-1-cysteine and separation of the resulting fluorescent diastereomers by reverse-phase HPLC, and graphed as the fraction of d-aspartate relative to the total aspartate (open circles). […] The lines were obtained by computer simulation of the reactions involved in deamidation of asparaginyl residues starting with previously published kinetic constants (Geiger and Clarke 1987), and varying the racemization rate of the succinimide intermediate to give a best-fit line as determined by least squares analysis.

[3] = In vitro peptide aging: deamidation of the asparaginyl residue, by reverse-phase HPLC with UV at 210 nm; settings: pH 7.4, 37° C.
Protocol: (§1) Deuterated peptide VYPNGA and the protonated control peptide were dissolved in 0.1 M sodium phosphate, pH 7.44 at 23° C. These solutions were sterilized by passing them through 0.2 μm pore syringe filters (Fisher), and 50 μL aliquots containing 40 nmol of peptide were placed in 200 μL PCR tubes, which were incubated at 37° C. for various times up to 20.6 days. At this temperature, the pH of the phosphate buffer is very close to 7.40. At the end of the incubations, 4.5 μL of 1 M hydrochloric acid was added to each tube, lowering the pH to about 4 to minimize any additional deamidation of the asparaginyl residue. These aged samples were then stored at −20° C. prior to analysis by HPLC.
(§2) Deuterated and non-deuterated VYPNGA were aged in vitro in 0.1 M sodium phosphate at physiological pH and temperature. The rate of deamidation of the asparaginyl residue was determined by separating the peptide from its degradation products using reverse phase HPLC and measuring the UV absorbance at 210 nm using the approach of Geiger and Clarke, supra.
(§3) The l- and d-forms of these peptides were not separated under these conditions. These HPLC runs were done with a linear gradient from 100% buffer A (0.1% trifluoroacetic acid in water) to 86% buffer A/14% buffer B (0.1% trifluoroacetic acid, 0.9% water, 99% acetonitrile) in 28 min.
(§4) The relative quantity of asparagine-containing peptide remaining (open circles) was quantified by UV absorbance at 210 nm during separation of the peptides by HPLC using a reverse phase C18 column as shown in FIG. 2. There were 24 data points in each panel though some were concealed due to overlap, combined from two independent aging experiments. The line in each panel was fit to the data points using the first order reaction equation [A]=[A]0e−kt and least squares analysis.

[4] = Stephenson and Clarke; cited from earlier work
physchem = settings: buffer, pH 7.4
Protocol: as §1, §2, §3, §4

[5] = Geiger and Clarke 1987; cited from earlier work
[6] = between 9 and 22 days of incubation

| Substance | increase in production of normal aspartyl-containing peptide upon hydrolysis of the succinimide ring ([1]; deuterated versus protiated succinimide) | tendency of the succinimide to open to the isoaspartyl configuration / effect on succinimide hydrolysis ([1]; deuterated versus protonated succinimide) | average relative amount of isoaspartyl-containing peptide (isoAsp/(isoAsp+Asp)) [1] | racemization rate constant relative to protiated peptide ([2]; 37° C., pH 7.4) | Asn/Asp/isoAsp residues racemized to the D-configuration by 4 days ([2]; 37° C., pH 7.4) [%] | aspartyl/isoaspartyl/succinimidyl residues racemized to the D-configuration after 21 days ([2]; 37° C., pH 7.4, 21 days of incubation) [%] | racemization rate constant of the succinimide ([2]; 37° C., pH 7.4) [min⁻¹] | succinimides that have lost the deuterium from the alpha carbon ([2]; 21 days of incubation, 2×1.49%) [%] | deamidated peptide still deuterated on the alpha carbon ([2]; after incubation, 9 to 22 days) | rate of racemization of l-aspartyl/l-isoaspartyl residues relative to protiated [2, 6] | slope of racemization line (D-aspartate fraction versus time) [2, 6] | accumulation of d-aspartyl and d-isoaspartyl forms / rate of D-aspartate formation relative to protiated peptide ([2]; pH 7.4, 37° C., up to 20 day incubation) | asparaginyl residues deamidated after 6 days [3] | asparaginyl residues deamidated after three days [3] [%] | effect of deuterium atoms on rate of deamidation / succinimide formation ([3]; versus protiated peptide) | succinimide formation of Asn residue in VYPNGA relative to aspartyl residue in VYPDGA [4] | half-life at 800 µM (physchem) [h] | racemization rate constant relative to that previously measured (Geiger and Clarke) ([2]; higher than the literature value) | rate of racemization of protiated peptide relative to deuterated peptide ([2]; within the first day of aging under physiological conditions) [times] | L-isoAsp/(L-isoAsp+L-Asp) previously reported [5] |
| --- | --- | --- | --- | --- | --- | --- | --- | --- | --- | --- | --- | --- | --- | --- | --- | --- | --- | --- | --- | --- |
| VYPNGA [deuterated peptide] | about 2.3% | slightly less likely to open to the isoaspartyl configuration; also recorded: only a small effect | 0.770 | almost five-fold lower | 1 | 1.49 | 7.4e-05 | 2.98 | over 97% | about fourfold slower | about 1.70×10^−4 day^−1 | much slower rate; also recorded: decreased more than five-fold; also recorded: five-fold decreased rate; also recorded: much more resistant to racemization | about 95% | 80 | little effect; also recorded: unchanged; also recorded: no effect | – | – | – | – | – |
| VYPNGA [protiated peptide, L-Val-L-Tyr-L-Pro-L-Asn-Gly-L-Ala, reference compound] | – | – | 0.793 | – | 5 | – | 0.00034 | – | – | – | 0.000677 day⁻¹ | – | about 95% | 80 | – | about 37 times | 32.4 | about 1.14 fold | 3.65 | 0.785 |
